According to ChEMBL document CHEMBL1201862, “PubChem BioAssay data set” (2004):
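These data come from cells grown in 96-well plates and exposed to compound for 48 hours at five concentrations. GI50 is the concentration that inhibits growth by half.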 Activity calls are given as the source filed them. Cut-off read from the data, not from the text of the source: active = GI50 up to about 1.1 µM and inactive = higher.

Columns and labels:
Test in all cases: inhibition of tumour cell growth, NCI panel, 48 h
ACHN = test system: ACHN
CAKI-1 = test system: CAKI-1
HCT-15 = test system: HCT-15
LOX IMVI = test system: LOX IMVI
MCF7 = test system: MCF7
NCI-H226 = test system: NCI-H226
NCI-H23 = test system: NCI-H23
OVCAR-3 = test system: OVCAR-3
OVCAR-5 = test system: OVCAR-5
RPMI-8226 = test system: RPMI-8226
SF-539 = test system: SF-539
SNB-75 = test system: SNB-75
SW-620 = test system: SW-620
U-251 = test system: U-251
UO-31 = test system: UO-31
K562 = test system: K562
Malme-3M = test system: Malme-3M
OVCAR-4 = test system: OVCAR-4
UACC-62 = test system: UACC-62
RXF 393 = test system: RXF 393

| SMILES | GI50 (ACHN) | GI50 (CAKI-1) | GI50 (HCT-15) | GI50 (LOX IMVI) | GI50 (MCF7) | GI50 (NCI-H226) | GI50 (NCI-H23) | GI50 (OVCAR-3) | GI50 (OVCAR-5) | GI50 (RPMI-8226) | GI50 (SF-539) | GI50 (SNB-75) | GI50 (SW-620) | GI50 (U-251) | GI50 (UO-31) | GI50 (K562) | GI50 (Malme-3M) | GI50 (OVCAR-4) | GI50 (UACC-62) | GI50 (RXF 393) |
| --- | --- | --- | --- | --- | --- | --- | --- | --- | --- | --- | --- | --- | --- | --- | --- | --- | --- | --- | --- | --- |
| ClCCN1CCOC1=C1C=CC=C1 | > 100 µM (inactive) | > 100 µM (inactive) | > 100 µM | > 100 µM (inactive) | > 100 µM (inactive) | > 100 µM (inactive) | > 100 µM (inactive) | > 100 µM (inactive) | > 100 µM (inactive) | > 100 µM (inactive) | > 100 µM (inactive) | > 100 µM (inactive) | > 100 µM (inactive) | > 100 µM (inactive) | > 100 µM (inactive) | – | – | – | – | – |
| COc1ccc2c(c1)c(=O)c1c(NCCN(C)C)ccc3c(=O)n(CCN(C)C)c(=O)n2c31 | 0.0138 µM (active) | 0.0283 µM (active) | < 0.0223 µM | 0.104 µM (active) | 0.0368 µM (active) | 0.163 µM (active) | 0.11 µM (active) | 0.182 µM (active) | 0.254 µM (active) | 0.0323 µM (active) | 0.0376 µM (active) | 0.173 µM (active) | < 0.0105 µM (active) | 0.0783 µM (active) | 0.163 µM (active) | < 0.01 µM (active) | 0.29 µM (active) | 0.101 µM (active) | 0.156 µM (active) | – |
| C=C(C)C(=O)CC[C@@H](C)[C@H]1[C@@H](OC2OC(CO)C(O)C(O)C2O)C[C@@]2(C)[C@@H]3C[C@H](O)C4C(C)(C)[C@@H](OC5OC(CO)C(O)C(O)C5O)CC[C@@]45C[C@@]35CC[C@]12C (stereo not given in full) | > 100 µM (inactive) | 66.4 µM (inactive) | > 100 µM | > 100 µM (inactive) | > 100 µM (inactive) | – | 87.3 µM (inactive) | > 100 µM (inactive) | > 100 µM (inactive) | > 100 µM (inactive) | 89.9 µM (inactive) | > 100 µM (inactive) | > 100 µM (inactive) | > 100 µM (inactive) | > 100 µM (inactive) | 90.6 µM (inactive) | > 100 µM (inactive) | > 100 µM (inactive) | > 100 µM (inactive) | – |
| O=C(OCc1ccccc1)N1CCN(C(=O)OCc2ccccc2)CCN(C(=O)OCc2ccccc2)CCN(C(=O)OCc2ccccc2)CCN(C(=O)OCc2ccccc2)CC1 | > 100 µM (inactive) | > 100 µM (inactive) | 46.8 µM | 80 µM (inactive) | > 100 µM (inactive) | > 100 µM (inactive) | – | > 100 µM (inactive) | > 100 µM (inactive) | – | 28.3 µM (inactive) | 30.9 µM (inactive) | > 100 µM (inactive) | 76.7 µM (inactive) | 22.8 µM (inactive) | – | 24.4 µM (inactive) | 57.4 µM (inactive) | > 100 µM (inactive) | – |
| Nc1nc2ncc(SCc3ccc(C(=O)NC(CCC(=O)O)C(=O)O)cc3)cc2c(=O)[nH]1 (stereo not given) | > 100 µM (inactive) | > 100 µM (inactive) | > 100 µM | > 100 µM (inactive) | > 100 µM (inactive) | > 100 µM (inactive) | > 100 µM (inactive) | > 100 µM (inactive) | > 100 µM (inactive) | 19.4 µM (inactive) | > 100 µM (inactive) | – | > 100 µM (inactive) | > 100 µM (inactive) | > 100 µM (inactive) | > 100 µM (inactive) | > 100 µM (inactive) | > 100 µM (inactive) | > 100 µM (inactive) | – |
| O=C1C2C(C(=O)N1O)N(Cc1ccccc1)C(=O)N2Cc1ccccc1 (stereo not given) | > 100 µM (inactive) | > 100 µM (inactive) | > 100 µM | > 100 µM (inactive) | – | > 100 µM (inactive) | > 100 µM (inactive) | > 100 µM (inactive) | > 100 µM (inactive) | > 100 µM (inactive) | > 100 µM (inactive) | > 100 µM (inactive) | > 100 µM (inactive) | > 100 µM (inactive) | > 100 µM (inactive) | > 100 µM (inactive) | > 100 µM (inactive) | > 100 µM (inactive) | > 100 µM (inactive) | > 100 µM (inactive) |
| CO/N=C(\C)c1ccc(Nc2nc3ccccc3c3occc23)cc1 | 14 µM (inactive) | 16.4 µM (inactive) | 15.1 µM | 15.3 µM (inactive) | 13.8 µM (inactive) | 8.18 µM (inactive) | 14.7 µM (inactive) | 30.2 µM (inactive) | 16.3 µM (inactive) | 16.9 µM (inactive) | 14.2 µM (inactive) | – | – | 16.9 µM (inactive) | 18.9 µM (inactive) | 20.2 µM (inactive) | 14.6 µM (inactive) | – | 12.1 µM (inactive) | – |
| N[C@H]1CCc2c1nc1c(c2-c2ccccc2)CC[C@@H]1N | 40.1 µM (inactive) | 14.8 µM (inactive) | 34.4 µM | 14 µM (inactive) | 21.8 µM (inactive) | 33.6 µM (inactive) | 25.2 µM (inactive) | – | 18.3 µM (inactive) | 34.4 µM (inactive) | 16.1 µM (inactive) | 11.9 µM (inactive) | 12.3 µM (inactive) | 20.5 µM (inactive) | – | 12.3 µM (inactive) | 16.7 µM (inactive) | 50.8 µM (inactive) | – | – |
| N#Cc1ccc(/C=[N+](/C=c2ccc(=C=[N-])cc2)N(CCO)C2=NCCN2)cc1 | > 100 µM (inactive) | > 100 µM (inactive) | > 100 µM | > 100 µM (inactive) | > 100 µM (inactive) | > 100 µM (inactive) | > 100 µM (inactive) | > 100 µM (inactive) | > 100 µM (inactive) | – | > 100 µM (inactive) | > 100 µM (inactive) | > 100 µM (inactive) | > 100 µM (inactive) | > 100 µM (inactive) | > 100 µM (inactive) | > 100 µM (inactive) | > 100 µM (inactive) | > 100 µM (inactive) | – |
| O=[N+]([O-])c1nccn1CC(O)c1ccc(F)cc1 (stereo not given) | > 100 µM (inactive) | > 100 µM (inactive) | > 100 µM | > 100 µM (inactive) | – | > 100 µM (inactive) | > 100 µM (inactive) | > 100 µM (inactive) | > 100 µM (inactive) | > 100 µM (inactive) | > 100 µM (inactive) | > 100 µM (inactive) | > 100 µM (inactive) | > 100 µM (inactive) | > 100 µM (inactive) | > 100 µM (inactive) | > 100 µM (inactive) | > 100 µM (inactive) | > 100 µM (inactive) | > 100 µM (inactive) |
| CN(C)c1ccc2nc3c(ccc4ccccc43)[o+]c2c1 | 13.8 µM (inactive) | 15.5 µM (inactive) | 11.8 µM | 6 µM (inactive) | – | 17.7 µM (inactive) | 14 µM (inactive) | 3.89 µM (inactive) | 21.9 µM (inactive) | 3.48 µM (inactive) | 18.2 µM (inactive) | 17.5 µM (inactive) | 3.2 µM (inactive) | 16.1 µM (inactive) | 17.7 µM (inactive) | 2.74 µM (inactive) | 12.9 µM (inactive) | 12.8 µM (inactive) | 11.5 µM (inactive) | 13.3 µM (inactive) |
| O=C1O[C@@H](c2ccccc2)C[C@H]1CN1CCOCC1 | > 100 µM (inactive) | 20.4 µM (inactive) | > 100 µM | > 100 µM (inactive) | – | 43.6 µM (inactive) | 17 µM (inactive) | > 100 µM (inactive) | > 100 µM (inactive) | 14.6 µM (inactive) | > 100 µM (inactive) | 51.9 µM (inactive) | > 100 µM (inactive) | > 100 µM (inactive) | > 100 µM (inactive) | 40.7 µM (inactive) | > 100 µM (inactive) | > 100 µM (inactive) | > 100 µM (inactive) | > 100 µM (inactive) |
| CC(=O)O[C@H]1C(=O)[C@@]2(C)C(C(OC(=O)c3ccccc3)[C@]3(O)CC(OC(=O)C(O)C(NC(=O)c4ccccc4)c4cccc(Cl)c4)C(C)=C1C3(C)C)[C@]1(OC(C)=O)CO[C@@H]1C[C@@H]2O (stereo not given in full) | > 10 µM (inactive) | > 10 µM (inactive) | > 10 µM | 4.29 µM (inactive) | 3.06 µM (inactive) | > 10 µM (inactive) | 4.39 µM (inactive) | 4.18 µM (inactive) | 4.15 µM (inactive) | 2.21 µM (inactive) | 3.24 µM (inactive) | 2.62 µM (inactive) | 6.47 µM (inactive) | 4.95 µM (inactive) | – | 4.94 µM (inactive) | > 10 µM (inactive) | > 10 µM (inactive) | 2.33 µM (inactive) | – |
| CN(C)c1ccc(/C=N/c2ccc(-c3nc4ccccc4o3)cc2)cc1 | 54.3 µM (inactive) | – | 31.8 µM | 35.2 µM (inactive) | 40.9 µM (inactive) | – | 32.7 µM (inactive) | 20.3 µM (inactive) | > 100 µM (inactive) | – | 40.8 µM (inactive) | 54.7 µM (inactive) | 86.3 µM (inactive) | 31.7 µM (inactive) | 48.8 µM (inactive) | 36.7 µM (inactive) | > 100 µM (inactive) | 33.5 µM (inactive) | 38.7 µM (inactive) | – |
| CC(C)C(=O)Nc1nc2c(ncn2C2OC(CO)C(O)C2O)c(=O)[nH]1 (stereo not given) | > 100 µM (inactive) | > 100 µM (inactive) | > 100 µM | > 100 µM (inactive) | – | > 100 µM (inactive) | > 100 µM (inactive) | > 100 µM (inactive) | > 100 µM (inactive) | > 100 µM (inactive) | > 100 µM (inactive) | > 100 µM (inactive) | > 100 µM (inactive) | > 100 µM (inactive) | > 100 µM (inactive) | > 100 µM (inactive) | > 100 µM (inactive) | > 100 µM (inactive) | > 100 µM (inactive) | > 100 µM (inactive) |
